The source of these data is patent US20230339880A1, “COMPOSITIONS OF AJULEMIC ACID AND USES THEREOF” (priority 2019, published 2023).

Assay type in all cases: physicochemical
Data set [1] can be described thus: Thermogravimetric Analysis/Dynamic Temperature Analysis (TGA/DTA). The note with it: for TGA wt. loss: from the onset to about 210° C., heating 10° C./min. The method, then: Approximately 5-10 mg of material was weighed into an open aluminum pan and loaded into a TA Instruments SDT650 and held at room temperature. The sample was then heated at a rate of 10° C./min from 30° C. to 350° C. during which time the change in sample weight was recorded along with the heat flow response (DSC). Nitrogen was used as the purge gas, at a flow rate of 100 cm^3/min for both the sample and balance purges.

Data set [2] can be described thus: Dynamic Vapor Sorption (DVS). As for the experimental part: Approximately 10-20 mg of sample was placed into a mesh vapor sorption balance pan and loaded into a Surface Measurement Systems DVS Intrinsic dynamic vapor sorption balance. The material was subjected to a ramping profile from 40 to 90% relative humidity (RH) at 10% increments, maintaining the sample at each step until a stable weight had been achieved (dm/dt 0.004%, minimum step length 30 minutes, maximum step length 500 minutes) at 25° C. After completion of the sorption cycle, the sample was dried using the same procedure to 0% RH and then a second sorption cycle back to 40% RH was carried out. Two cycles were performed. The weight change during the sorption/desorption cycles were plotted, allowing the hygroscopic nature of the sample to be determined. XRPD analysis was then carried out on any solid retained.
Because this equilibration with ambient humidity is rapid, calculation or use of sufficiently accurate assay results on Form A material must take into account its current water content.

The nature of data set [3]: Thermodynamic solubility studies. To be noted: for Average Concentration: triplicate average; for Form by XRPD Dry: residual solids dried under vacuum; for Form by XRPD Wet: residual solids. The method, then:
For each experiment, approximately 50 mg of either crystal form A or crystal form B was weighed into a 20 mL scintillation vial. 15 mL of the appropriate solvent system was added and the solution was stirred at 37° C. At approximately 7.5 h, a portion of the mother liquor was transferred to a pre-heated vial (at 37° C.) via syringe filter (0.45 μm). An aliquot of slurry was removed, and the solids in the aliquot were isolated by centrifugation and plated for XRPD analysis. The plated solids were stored in freezer for 12 h prior to analysis.
The remaining solution was further stirred at 37° C. overnight (approximately 25 h total stirring time). Stirring was then terminated and the solids were allowed to settle. After approximately 0.75 h, a portion of the mother liquor was transferred to a pre-heated vial (at 37° C.) via syringe filter (0.45 μm). The residual solids were isolated by centrifugation and analyzed by XRPD.
For “dry” analysis, the XRPD plates were dried under vacuum at ambient temperature for approximately 23 h and re-analyzed.

[4] abbreviates: FaSSGF, after approximately 7.5 h at 37° C.
Setting [5] is: FaSSGF, after approximately 25 h at 37° C.
[6] abbreviates: FaSSIF, after approximately 7.5 h at 37° C.
Where [7] appears, read: FaSSIF, after approximately 25 h at 37° C.
Setting [8] is: FeSSIF, after approximately 7.5 h at 37° C.
[9] abbreviates: FeSSIF, after approximately 25 h at 37° C.
Where [10] appears, read: pH 6.1 media, after approximately 7.5 h at 37° C.
The mark [11] stands for this setting: pH 6.1 media, after approximately 25 h at 37° C.
[12] abbreviates: pH 6.8 media, after approximately 7.5 h at 37° C.
The mark [13] stands for this setting: pH 6.8 media, after approximately 25 h at 37° C.
The mark [14] stands for this setting: FaSSGF, approximately 7.5 h at 37° C.
[15] abbreviates: FaSSGF, approximately 25 h at 37° C.
Setting [16] is: FeSSIF, approximately 7.5 h at 37° C.
[17] abbreviates: FeSSIF, approximately 25 h at 37° C.
The mark [18] stands for this setting: pH 6.1 media, approximately 25 h at 37° C.
[19] abbreviates: pH 6.8 media, approximately 25 h at 37° C.

Take `CCCCCCC(C)(C)c1cc(O)c2c(c1)OC(C)(C)[C@@H]1CC=C(C(=O)O)C[C@@H]21` [crystal form A, (6aR,10aR)-1-hydroxy-6,6-dimethyl-3-(2-methyl-2-octanyl)-6a,7,10,10a-tetrahydro-6H-benzo[c]chromene-9-carboxylic acid]: the TGA wt. loss in data set [1] and in data set [1] (listed as Crystal Form A) was 0.7 % wt each time. In addition, the “uptake of water by weight” value in data set [2] (at 90% RH, similar DVS studies) is reported as “about 3.5%”. Moreover, the “Average Concentration” value in data set [3] (setting [4]) turned out to be 0.2 µg/mL; in data set [3] (setting [5]) it was 0.2 µg/mL; in data set [3] (setting [6]), 1063 µg/mL; in data set [3] (setting [7]), 391 µg/mL; in data set [3] (setting [8]) it was 335 µg/mL; in data set [3] (setting [9]), 227 µg/mL. Besides, the “Average Concentration” value turned out to be 3.0 µg/mL in data set [3] (setting [10]), 2.0 µg/mL in data set [3] (setting [11]), 18 µg/mL in data set [3] (setting [12]) and 14 µg/mL in data set [3] (setting [13]). The “Form by XRPD Dry” value in data set [3] (setting [14]) is listed as “A + trace B”; in data set [3] (setting [15]), “B + A”; in data set [3] (setting [16]) it was “A*”; in data set [3] (setting [17]), “(X) +”; in data set [3] (setting [18]), “A +”; in data set [3] (setting [19]) it was “A*”. Further, the “Form by XRPD Wet” value is listed as “A + trace B” in data set [3] (setting [14]); “A + B” in data set [3] (setting [15]); “B +” in data set [3] (FaSSIF, approximately 25 h at 37° C.); “A*” in data set [3] (setting [16]); “(X) +” in data set [3] (setting [17]); “A + B” in data set [3] (setting [18]). In addition, the “Form by XRPD Wet” value in data set [3] (setting [19]) is listed as “A*”.
Regarding `CCCCCCC(C)(C)c1cc(O)c2c(c1)OC(C)(C)[C@@H]1CC=C(C(=O)O)C[C@@H]21` [crystal form B, (6aR,10aR)-1-hydroxy-6,6-dimethyl-3-(2-methyl-2-octanyl)-6a,7,10,10a-tetrahydro-6H-benzo[c]chromene-9-carboxylic acid], the TGA wt. loss in data set [1] is listed as 0.9 % wt; in data set [1] (listed as Crystal Form B), “no significant mass loss”. Besides, in data set [1] (heating 10° C./min from 30° C. to 350° C.), the “decomposition temperature by TGA/DTA” value is “ca. 285 °C”. Further, the water uptake entry in data set [2] (at 90% RH, 25° C.) is reported as “circa 1 wt %”. In addition, in data set [2] (ramping 40 to 90% RH, 25° C.), the “hygroscopic nature by DVS” value is given as “slightly hygroscopic”. In data set [2] (solid retained after two sorption/desorption cycles), the “Post-DVS XRPD analysis” value is recorded as “no change in pattern”. In addition, the “Average Concentration” value was 0.3 µg/mL in data set [3] (setting [4]); 0.4 µg/mL in data set [3] (setting [5]); 242 µg/mL in data set [3] (setting [6]); 266 µg/mL in data set [3] (setting [7]); 684 µg/mL in data set [3] (setting [8]); 696 µg/mL in data set [3] (setting [9]). For the same molecule, the “Average Concentration” value was determined as 1.2 µg/mL in data set [3] (setting [10]), 0.1 µg/mL in data set [3] (setting [11]), 4.3 µg/mL in data set [3] (setting [12]) and 2.0 µg/mL in data set [3] (setting [13]).
